In brackets after ≈: the same amount, converted by molar mass.
Legend:
Experiment in all cases: In vitro antibacterial evaluation: minimum inhibitory concentration (MIC), broth dilution method
Assay type in all cases: cell-based
Staphylococcus sp. = settings: for MIC Staphylococcus aureus (ATCC 29213): strain ATCC 29213; for MIC Staphylococcus aureus (GC 1131): strain GC 1131; for MIC Staphylococcus aureus (GC 4541): strain GC 4541; for MIC Staphylococcus aureus (GC 4542): strain GC 4542; for MIC Staphylococcus aureus-SMITH (GC 4543): strain GC 4543; for MIC Staphylococcus aureus (GC 4544): strain GC 4544; for MIC Staphylococcus aureus (GC 4545): strain GC 4545; for MIC Staphylococcus haemolyticus (GC 4546): strain GC 4546; for MIC Coagulase Negative Staphylococcus (GC 4547): strain GC 4547; for MIC Coagulase Negative Staphylococcus (GC 4548): strain GC 4548; for MIC Coagulase Negative Staphylococcus (GC 4549): strain GC 4549; for MIC Coagulase Negative Staphylococcus (GC 4551): strain GC 4551; for MIC Coagulase Negative Staphylococcus (ID-3941): strain ID-3941; for MIC Staphylococcus aureus (GC 3051): strain GC 3051; for MIC Staphylococcus aureus (GC 3053): strain GC 3053; for MIC Coagulase Negative Staphylococcus (GC 6257): strain GC 6257
Description: (§1) The minimum inhibitory concentration (MIC), the lowest concentration of the antibiotic which inhibits growth of the test organism, is determined by the broth dilution method using Muller-Hinton II […] (Baltimore Biological Laboratories) following the recommendations of the National Committee for Clinical Laboratory Standards [Methods for dilution antimicrobial susceptibility tests for bacteria that grow aerobically, approved standard M7-A2, National Committee for Clinical Laboratory Standards, Villanova, Pa].
(§2) An inoculum level of 5×10^5 CFU/mL, and a range of antibiotic concentrations (64-0.06 μg/mL) is used. […] The test organisms include a spectrum of Gram-positive bacteria comprised of Staphylococcus sp., Streptococcus sp. and Enterococcus sp. These organisms include recent clinical isolates that are resistant to methicillin, penicillin and/or vancomycin.

Streptococcus sp. = settings: broth dilution, 5×10^5 CFU/mL, 18 hours at 35° C.
Description: as §1, §2

Enterococcus sp. = settings: broth dilution, 5×10^5 CFU/mL, 18 hours at 35° C.
Description: as §1, §2

Escherichia coli = settings: 5×10^5 CFU/mL, 18 hours at 35° C.
Description: as §1, §2

[1] = broth dilution, 18 hours at 35° C.

CC(c1ccccc1)C1NC(=O)CNC(=O)C(CO)NC(=O)C(C(O)C2CNC(=N)N2C2OC(CO)C(O)C(O)C2O)NC(=O)C(C(O)C2CNC(=N)N2)NC(=O)C(Cc2ccc(OC3OC(CO)C(OC4OC5COC(CC(C)(C)C)OC5C(O)C4O)C(O)C3O)cc2)NC1=O (centres unmarked) [Example 110]
MIC Staphylococcus aureus (ATCC 29213) (Staphylococcus sp.): 1 µg/mL (≈ 0.726 µM) | MIC Staphylococcus aureus (ATCC 29213) (Staphylococcus sp.; [1]): 1 µg/mL (≈ 0.726 µM) | MIC Staphylococcus aureus (GC 1131) (Staphylococcus sp.): 1 µg/mL (≈ 0.726 µM) | MIC Staphylococcus aureus (GC 1131) (Staphylococcus sp.; [1]): 1 µg/mL (≈ 0.726 µM) | MIC Staphylococcus aureus (GC 4541) (Staphylococcus sp.): 1 µg/mL (≈ 0.726 µM) | MIC Staphylococcus aureus (GC 4541) (Staphylococcus sp.; [1]): 1 µg/mL (≈ 0.726 µM) | MIC Staphylococcus aureus (GC 4542) (Staphylococcus sp.): 1 µg/mL (≈ 0.726 µM) | MIC Staphylococcus aureus (GC 4542) (Staphylococcus sp.; [1]): 1 µg/mL (≈ 0.726 µM) | MIC Staphylococcus aureus-SMITH (GC 4543) (Staphylococcus sp.; 18 hours at 35° C.): 1 µg/mL (≈ 0.726 µM) | MIC Staphylococcus aureus-SMITH (GC 4543) (Staphylococcus sp.; [1]): 1 µg/mL (≈ 0.726 µM) | MIC Staphylococcus aureus (GC 4544) (Staphylococcus sp.): 2 µg/mL (≈ 1.45 µM) | MIC Staphylococcus aureus (GC 4544) (Staphylococcus sp.; [1]): 2 µg/mL (≈ 1.45 µM) | MIC Staphylococcus aureus (GC 4545) (Staphylococcus sp.): 1 µg/mL (≈ 0.726 µM) | MIC Staphylococcus aureus (GC 4545) (Staphylococcus sp.; [1]): 1 µg/mL (≈ 0.726 µM) | MIC Staphylococcus haemolyticus (GC 4546) (Staphylococcus sp.): 1 µg/mL (≈ 0.726 µM) | MIC Staphylococcus haemolyticus (GC 4546) (Staphylococcus sp.; [1]): 1 µg/mL (≈ 0.726 µM) | MIC Coagulase Negative Staphylococcus (GC 4547) (Staphylococcus sp.): 1 µg/mL (≈ 0.726 µM) | MIC Coagulase Negative Staphylococcus (GC 4547) (Staphylococcus sp.; [1]): 1 µg/mL (≈ 0.726 µM) | MIC Coagulase Negative Staphylococcus (GC 4548) (Staphylococcus sp.): 1 µg/mL (≈ 0.726 µM) | MIC Coagulase Negative Staphylococcus (GC 4548) (Staphylococcus sp.; [1]): 1 µg/mL (≈ 0.726 µM) | MIC Coagulase Negative Staphylococcus (GC 4549) (Staphylococcus sp.): 1 µg/mL (≈ 0.726 µM) | MIC Coagulase Negative Staphylococcus (GC 4549) (Staphylococcus sp.; [1]): 1 µg/mL (≈ 0.726 µM) | MIC Coagulase Negative Staphylococcus (GC 4551) (Staphylococcus sp.): 1 µg/mL (≈ 0.726 µM) | MIC Coagulase Negative Staphylococcus (GC 4551) (Staphylococcus sp.; [1]): 1 µg/mL (≈ 0.726 µM) | MIC Coagulase Negative Staphylococcus (ID-3941) (Staphylococcus sp.): 1 µg/mL (≈ 0.726 µM) | MIC Coagulase Negative Staphylococcus (ID-3941) (Staphylococcus sp.; [1]): 1 µg/mL (≈ 0.726 µM) | MIC Streptococcus agalactiae (GC 4564) (Streptococcus sp.): <0.5 µg/mL | MIC Streptococcus pneumoniae (GC 4565) (Streptococcus sp.): <0.5 µg/mL | MIC Streptococcus pyogenes (ID-3187) (Streptococcus sp.): <0.5 µg/mL | MIC Enterococccus avium (GC 4558) (Enterococcus sp.): 4 µg/mL (≈ 2.9 µM) | MIC Enterococccus faecalis (ATCC 29212) (Enterococcus sp.): 4 µg/mL (≈ 2.9 µM) | MIC Enterococccus faecalis (GC 4552) (Enterococcus sp.): 4 µg/mL (≈ 2.9 µM) | MIC Enterococccus faecalis (GC 4553) (Enterococcus sp.): 4 µg/mL (≈ 2.9 µM) | MIC Enterococccus faecalis (GC 4554) (Enterococcus sp.): 2 µg/mL (≈ 1.45 µM) | MIC Enterococccus faecium (GC 2243) (Enterococcus sp.): 4 µg/mL (≈ 2.9 µM) | MIC Enterococccus faecium (GC 4556) (Enterococcus sp.): 2 µg/mL (≈ 1.45 µM) | MIC Enterococccus faecium (GC 4557) (Enterococcus sp.): 2 µg/mL (≈ 1.45 µM) | MIC Enterococcus faecalis (GC 2242) (Enterococcus sp.): 2 µg/mL (≈ 1.45 µM) | MIC Escherichia coli (ATCC 25922) (Escherichia coli): 64 µg/mL (≈ 46.5 µM)

CCCCOC(=O)CCC1OCC2OC(OC3C(CO)OC(Oc4ccc(CC5NC(=O)C(C(C)c6ccccc6)NC(=O)CNC(=O)C(CO)NC(=O)C(C(O)C6CNC(=N)N6C6OC(CO)C(O)C(O)C6O)NC(=O)C(C(O)C6CNC(=N)N6)NC5=O)cc4)C(O)C3O)C(O)C(O)C2O1 (stereo not drawn) [Example 114, Cyclo[glycyl-β-methylphenylalanyl-O-[4-O-[4,6-O-(4-butoxy-4-oxobutylidene)hexopyranosyl]-hexopyranosyl]tyrosyl-3-(2-iminoimidazolidin-4-yl)seryl-3-(3-hexopyranosyl-2-iminoimidazolidin-4-yl)serylseryl]]
MIC Staphylococcus aureus (ATCC 29213) (Staphylococcus sp.): 2 µg/mL (≈ 1.39 µM) | MIC Staphylococcus aureus (ATCC 29213) (Staphylococcus sp.; [1]): 2 µg/mL (≈ 1.39 µM) | MIC Staphylococcus aureus (GC 1131) (Staphylococcus sp.): 2 µg/mL (≈ 1.39 µM) | MIC Staphylococcus aureus (GC 1131) (Staphylococcus sp.; [1]): 2 µg/mL (≈ 1.39 µM) | MIC Staphylococcus aureus (GC 3051) (Staphylococcus sp.): 2 µg/mL (≈ 1.39 µM) | MIC Staphylococcus aureus (GC 3051) (Staphylococcus sp.; [1]): 2 µg/mL (≈ 1.39 µM) | MIC Staphylococcus aureus (GC 3053) (Staphylococcus sp.): 2 µg/mL (≈ 1.39 µM) | MIC Staphylococcus aureus (GC 3053) (Staphylococcus sp.; [1]): 2 µg/mL (≈ 1.39 µM) | MIC Staphylococcus aureus (GC 4541) (Staphylococcus sp.): 2 µg/mL (≈ 1.39 µM) | MIC Staphylococcus aureus (GC 4541) (Staphylococcus sp.; [1]): 2 µg/mL (≈ 1.39 µM) | MIC Staphylococcus aureus (GC 4542) (Staphylococcus sp.): 1 µg/mL (≈ 0.697 µM) | MIC Staphylococcus aureus (GC 4542) (Staphylococcus sp.; [1]): 1 µg/mL (≈ 0.697 µM) | MIC Staphylococcus aureus-SMITH (GC 4543) (Staphylococcus sp.; 18 hours at 35° C.): 2 µg/mL (≈ 1.39 µM) | MIC Staphylococcus aureus-SMITH (GC 4543) (Staphylococcus sp.; [1]): 2 µg/mL (≈ 1.39 µM) | MIC Staphylococcus aureus (GC 4544) (Staphylococcus sp.): 2 µg/mL (≈ 1.39 µM) | MIC Staphylococcus aureus (GC 4544) (Staphylococcus sp.; [1]): 2 µg/mL (≈ 1.39 µM) | MIC Staphylococcus aureus (GC 4545) (Staphylococcus sp.): 2 µg/mL (≈ 1.39 µM) | MIC Staphylococcus aureus (GC 4545) (Staphylococcus sp.; [1]): 2 µg/mL (≈ 1.39 µM) | MIC Staphylococcus haemolyticus (GC 4546) (Staphylococcus sp.): 1 µg/mL (≈ 0.697 µM) | MIC Staphylococcus haemolyticus (GC 4546) (Staphylococcus sp.; [1]): 1 µg/mL (≈ 0.697 µM) | MIC Coagulase Negative Staphylococcus (GC 4547) (Staphylococcus sp.): 2 µg/mL (≈ 1.39 µM) | MIC Coagulase Negative Staphylococcus (GC 4547) (Staphylococcus sp.; [1]): 2 µg/mL (≈ 1.39 µM) | MIC Coagulase Negative Staphylococcus (GC 4548) (Staphylococcus sp.): 1 µg/mL (≈ 0.697 µM) | MIC Coagulase Negative Staphylococcus (GC 4548) (Staphylococcus sp.; [1]): 1 µg/mL (≈ 0.697 µM) | MIC Coagulase Negative Staphylococcus (GC 4549) (Staphylococcus sp.): 2 µg/mL (≈ 1.39 µM) | MIC Coagulase Negative Staphylococcus (GC 4549) (Staphylococcus sp.; [1]): 2 µg/mL (≈ 1.39 µM) | MIC Coagulase Negative Staphylococcus (GC 4551) (Staphylococcus sp.): 2 µg/mL (≈ 1.39 µM) | MIC Coagulase Negative Staphylococcus (GC 4551) (Staphylococcus sp.; [1]): 2 µg/mL (≈ 1.39 µM) | MIC Coagulase Negative Staphylococcus (GC 6257) (Staphylococcus sp.): 1 µg/mL (≈ 0.697 µM) | MIC Coagulase Negative Staphylococcus (GC 6257) (Staphylococcus sp.; [1]): 1 µg/mL (≈ 0.697 µM) | MIC Streptococcus agalactiae (GC 4564) (Streptococcus sp.): 0.5 µg/mL (≈ 0.348 µM) | MIC Streptococcus pneumoniae (GC 1894) (Streptococcus sp.): <0.06 µg/mL | MIC Streptococcus pneumoniae (GC 4565) (Streptococcus sp.): 0.25 µg/mL (≈ 0.174 µM) | MIC Streptococcus pneumonine (ATCC 6301) (Streptococcus sp.): 0.12 µg/mL (≈ 0.0836 µM) | MIC Streptococcus pyogenes (GC 4563) (Streptococcus sp.): 0.5 µg/mL (≈ 0.348 µM) | MIC Enterococccus avium (GC 4558) (Enterococcus sp.): 8 µg/mL (≈ 5.57 µM) | MIC Enterococccus faecalis (ATCC 29212) (Enterococcus sp.): 4 µg/mL (≈ 2.79 µM) | MIC Enterococccus faecalis (GC 2691) (Enterococcus sp.): 4 µg/mL (≈ 2.79 µM) | MIC Enterococccus faecalis (GC 3059) (Enterococcus sp.): 8 µg/mL (≈ 5.57 µM) | MIC Enterococccus faecalis (GC 4552) (Enterococcus sp.): 4 µg/mL (≈ 2.79 µM) | MIC Enterococccus faecalis (GC 4553) (Enterococcus sp.): 8 µg/mL (≈ 5.57 µM) | MIC Enterococccus faecalis (GC 4554) (Enterococcus sp.): 4 µg/mL (≈ 2.79 µM) | MIC Enterococccus faecalis (GC 6189) (Enterococcus sp.): 4 µg/mL (≈ 2.79 µM) | MIC Enterococccus faecium (GC 2243) (Enterococcus sp.): 4 µg/mL (≈ 2.79 µM) | MIC Enterococccus faecium (GC 4556) (Enterococcus sp.): 4 µg/mL (≈ 2.79 µM) | MIC Enterococccus faecium (GC 4557) (Enterococcus sp.): 2 µg/mL (≈ 1.39 µM) | MIC Enterococcus faecalis (GC 2242) (Enterococcus sp.): 4 µg/mL (≈ 2.79 µM) | MIC Escherichia coli (ATCC 25922) (Escherichia coli): 64 µg/mL (≈ 44.6 µM) | MIC Escherichia coli (GC 4559) (Escherichia coli): 64 µg/mL (≈ 44.6 µM) | MIC Escherichia coli (GC 4560) (Escherichia coli): 1 µg/mL (≈ 0.697 µM)

Source: patent US8247211B2, “Glycopeptide antibiotics” (American Cyanamid Company, priority 2001, dated 2012)
